Laboratory results as given in patent publication US20020111274A1, “1-alkyl-3-[1-(substituted phenyl) benzotriazol-6-yl] uracils” (BASF Aktiengesellschaft, priority 2000, published 2002).

Experiments:
Set-up in all cases: scale not given here
GLXMAW Soybean, Williams = experiment: Preemergence herbicidal evaluation, GLXMAW; assay type: in vivo, Glycine max, (L.) Merr. cv Williams; settings: preemergence
Text: (§1) The preemergence herbicidal activity of the test compounds of the present invention is exemplified by the following tests in which the seeds of a variety of monocotyledonous and dicotyledonous plants are separately mixed with potting soil and planted on top of approximately one inch of soil in separate pint cups. […] The treated cups are then placed on greenhouse benches, watered and cared for in accordance with conventional greenhouse procedures. From four to five weeks after treatment, the tests are terminated and each cup is examined and rated according to the rating system provided in Example 46.

ECHOG Barnyardgrass = experiment: Preemergence herbicidal evaluation, ECHOG; assay type: in vivo, Echinochloa crus-galli, (L.) Beau; settings: preemergence
Text: as §1

ABUTH Velvetleaf = experiment: Preemergence herbicidal evaluation, ABUTH; assay type: in vivo, Abutilon theophrasti, Medic.; settings: preemergence
Text: as §1

ZEAMX Corn, Field [1] = experiment: Postemergence herbicidal evaluation, ZEAMX; assay type: in vivo, Zea mays, L. (Sammel-Bezeichnung); settings: postemergence spray, rated about two-three weeks after treatment
Method: (§2) In this evaluation, seedling plants are grown in jiffy flats for about two weeks. The test compounds are dispersed in 80/20 acetone/water mixtures containing 1.0% SUN-IT® II, a methylated seed oil, in sufficient quantities to provide the equivalent of about 0.006 kg to 0.400 kg per hectare of active compound when applied to the plants through a spray nozzle operating at 40 psi for a predetermined time. After spraying, the plants are placed on greenhouse benches and are cared for in accordance with conventional greenhouse procedures. Approximately two - three weeks after treatment, the seedling plants are examined and rated according to the rating system set forth below. Where more than one test is involved for a given compound, the data are averaged.

AMBEL Ragweed, Common = experiment: Postemergence herbicidal evaluation, AMBEL; assay type: in vivo, Ambrosia artemisifolia, L.; settings: postemergence spray, rated about two-three weeks after treatment
Method: as §2

[2] = test system: IPOHE Morningglory, Ivyleaf; experiment: Preemergence herbicidal evaluation, IPOHE; assay type: in vivo, Ipomoea hederacea, (L.) Jacq.; settings: preemergence
Text: as §1

GALAP Galium = experiment: Postemergence herbicidal evaluation, GALAP; assay type: in vivo, Galium aparine; settings: postemergence spray, rated about two-three weeks after treatment
Method: as §2

[3] = test system: CHEAL Lambsquarters, Common; experiment: Preemergence herbicidal evaluation, CHEAL; assay type: in vivo, Chenopodium album, L.; settings: preemergence
Text: as §1

ZEAMX Corn, Field [4] = experiment: Preemergence herbicidal evaluation, ZEAMX; assay type: in vivo, Zea mays, L. (Sammel-Bezeichnung); settings: preemergence
Text: as §1

SETVI Foxtail, Green [5] = experiment: Postemergence herbicidal evaluation, SETVI; assay type: in vivo, Setaria viridis, (L.) Beau; settings: postemergence spray, rated about two-three weeks after treatment
Method: as §2

[6] = test system: CHEAL Lambsquarters, Common; experiment: Postemergence herbicidal evaluation, CHEAL; assay type: in vivo, Chenopodium album, L.; settings: postemergence spray, rated about two-three weeks after treatment
Method: as §2

SETVI Foxtail, Green [7] = experiment: Preemergence herbicidal evaluation, SETVI; assay type: in vivo, Setaria viridis, (L.) Beau; settings: preemergence
Text: as §1

COc1ccccc1-n1nnc2cc(F)c(-n3c(=O)cc(C(F)(F)F)n(C)c3=O)cc21 [Example 16, 3-[5-Fluoro-1-(2-Methoxyphenyl)-1H-1,2,3-Benzotriazol-6-yl]-1-Methyl-6-(Trifluoromethyl)-2,4(1H,3H)-Pyrmidinedione]
GLXMAW herbicidal rating (GLXMAW Soybean, Williams; rate 0.016 kg/ha): 9.0 | GLXMAW herbicidal rating (GLXMAW Soybean, Williams; rate 0.032 kg/ha): 9.0 | GLXMAW herbicidal rating (GLXMAW Soybean, Williams; rate 0.062 kg/ha): 9.0 | GLXMAW herbicidal rating (GLXMAW Soybean, Williams; rate 0.125 kg/ha): 9.0 | ECHCG herbicidal rating (ECHOG Barnyardgrass; rate 0.016 kg/ha): 9.0 | ECHCG herbicidal rating (ECHOG Barnyardgrass; rate 0.032 kg/ha): 9.0 | ECHCG herbicidal rating (ECHOG Barnyardgrass; rate 0.062 kg/ha): 9.0 | ECHCG herbicidal rating (ECHOG Barnyardgrass; rate 0.125 kg/ha): 9.0 | ABUTH herbicidal rating (ABUTH Velvetleaf; rate 0.016 kg/ha): 9.0 | ABUTH herbicidal rating (ABUTH Velvetleaf; rate 0.032 kg/ha): 9.0 | ABUTH herbicidal rating (ABUTH Velvetleaf; rate 0.062 kg/ha): 9.0 | ABUTH herbicidal rating (ABUTH Velvetleaf; rate 0.125 kg/ha): 9.0 | Postemergence herbicidal rating ZEAMX (ZEAMX Corn, Field [1]; 0.008 kg/ha): 5.5 | Postemergence herbicidal rating ZEAMX (ZEAMX Corn, Field [1]; 0.016 kg/ha): 6.0 | Postemergence herbicidal rating ZEAMX (ZEAMX Corn, Field [1]; 0.032 kg/ha): 6.0 | Postemergence herbicidal rating ZEAMX (ZEAMX Corn, Field [1]; 0.062 kg/ha): 6.0 | Postemergence herbicidal rating AMBEL (AMBEL Ragweed, Common; 0.008 kg/ha): 2.0 | Postemergence herbicidal rating AMBEL (AMBEL Ragweed, Common; 0.016 kg/ha): 9.0 | Postemergence herbicidal rating AMBEL (AMBEL Ragweed, Common; 0.032 kg/ha): 9.0 | Postemergence herbicidal rating AMBEL (AMBEL Ragweed, Common; 0.062 kg/ha): 9.0 | IPOHE herbicidal rating ([2]; rate 0.016 kg/ha): 3.0 | IPOHE herbicidal rating ([2]; rate 0.032 kg/ha): 3.0 | IPOHE herbicidal rating ([2]; rate 0.062 kg/ha): 9.0 | IPOHE herbicidal rating ([2]; rate 0.125 kg/ha): 9.0 | Postemergence herbicidal rating GALAP (GALAP Galium; 0.008 kg/ha): 0.0 | Postemergence herbicidal rating GALAP (GALAP Galium; 0.016 kg/ha): 3.0 | Postemergence herbicidal rating GALAP (GALAP Galium; 0.032 kg/ha): 3.0 | Postemergence herbicidal rating GALAP (GALAP Galium; 0.062 kg/ha): 4.0 | CHEAL herbicidal rating ([3]; rate 0.016 kg/ha): 9.0 | CHEAL herbicidal rating ([3]; rate 0.032 kg/ha): 9.0 | CHEAL herbicidal rating ([3]; rate 0.062 kg/ha): 9.0 | CHEAL herbicidal rating ([3]; rate 0.125 kg/ha): 9.0 | ZEAMX herbicidal rating (ZEAMX Corn, Field [4]; rate 0.016 kg/ha): 8.0 | ZEAMX herbicidal rating (ZEAMX Corn, Field [4]; rate 0.032 kg/ha): 7.0 | ZEAMX herbicidal rating (ZEAMX Corn, Field [4]; rate 0.062 kg/ha): 8.0 | ZEAMX herbicidal rating (ZEAMX Corn, Field [4]; rate 0.125 kg/ha): 8.0 | Postemergence herbicidal rating SETVI (SETVI Foxtail, Green [5]; 0.008 kg/ha): 2.0 | Postemergence herbicidal rating SETVI (SETVI Foxtail, Green [5]; 0.016 kg/ha): 5.0 | Postemergence herbicidal rating SETVI (SETVI Foxtail, Green [5]; 0.032 kg/ha): 7.0 | Postemergence herbicidal rating SETVI (SETVI Foxtail, Green [5]; 0.062 kg/ha): 9.0 | Postemergence herbicidal rating CHEAL ([6]; 0.008 kg/ha): 5.0 | Postemergence herbicidal rating CHEAL ([6]; 0.016 kg/ha): 5.0 | Postemergence herbicidal rating CHEAL ([6]; 0.032 kg/ha): 6.0 | Postemergence herbicidal rating CHEAL ([6]; 0.062 kg/ha): 8.0 | SETVI herbicidal rating (SETVI Foxtail, Green [7]; rate 0.016 kg/ha): 9.0 | SETVI herbicidal rating (SETVI Foxtail, Green [7]; rate 0.032 kg/ha): 9.0 | SETVI herbicidal rating (SETVI Foxtail, Green [7]; rate 0.062 kg/ha): 9.0 | SETVI herbicidal rating (SETVI Foxtail, Green [7]; rate 0.125 kg/ha): 9.0
